Results taken from ChEMBL document CHEMBL1152072, “Synthesis and structure-activity relationships of novel antiseptics” (1997).

Tests used:
Assay type in all cases: functional
Escherichia coli [1] = assay: Antibacterial activity against Escherichia coli after 3 mins.
Staphylococcus aureus [2] = assay: Antibacterial activity against Staphylococcus aureus after 3 mins.
Pseudomonas aeruginosa [3] = assay: Antibacterial activity against Pseudomonas aeruginosa ATCC 10145 after 3 mins.
Enterococcus faecalis [4] = assay: Antibacterial activity against Enterococcus faecalis IFO 12580 after 30 seconds
Escherichia coli [5] = assay: Antibacterial activity against Escherichia coil NIHJ JC-2 after 30 seconds
Staphylococcus aureus [6] = assay: Antibacterial activity against Staphylococcus aureus FDA 209P after 30 seconds
Serratia marcescens [7] = assay: Antibacterial activity against Serratia marcescens IFO 12648 after 30 seconds
Pseudomonas aeruginosa [8] = assay: Antibacterial activity against Pseudomonas aeruginosa ATCC 10145 after 30 seconds
[9] = tested on: Staphylococcus epidermidis; assay: Antibacterial activity against Staphylococcus epidermidis ATCC 12228 after 30 seconds
Burkholderia cepacia = assay: Antibacterial activity against Burkholderia cepacia 10 after 3 mins.
Staphylococcus aureus [10] = assay: Antibacterial activity against methicillin-resistant Staphylococcus aureus 57 after 3 mins.
Serratia marcescens [11] = assay: Antibacterial activity against Serratia marcescens IFO 12648,after 30 seconds
Enterococcus faecalis [12] = assay: Antibacterial activity against Enterococcus faecalis IFO 12580
Staphylococcus aureus [13] = assay: Antibacterial activity against Staphylococcus aureus after 30 seconds
Escherichia coli [14] = assay: Antibacterial activity against Escherichia coli NIHJ JC-2,after 30 seconds

SMILES | Activity (Escherichia coli [1]) | Activity (Staphylococcus aureus [2]) | Activity (Pseudomonas aeruginosa [3]) | Activity (Burkholderia cepacia) | further results
CCCCCCCC/N=C(N)/N=C(\N)Nc1ccc(Cl)c(Cl)c1.Cl | 50 µg/mL | 50 µg/mL | 50 µg/mL | – | –
CCCCCCCC/N=C(N)/N=C(\N)NCc1ccc(Cl)c(Cl)c1.Cl | <=10 ug ml-1 | <=10 ug ml-1 | <=10 ug ml-1 | <=10 ug ml-1 | Activity (Enterococcus faecalis [4]): 10 µg/mL; Activity (Escherichia coli [5]): 20 µg/mL; Activity (Staphylococcus aureus [6]): 20 µg/mL; Activity (Serratia marcescens [7]): 20 µg/mL; Activity (Pseudomonas aeruginosa [8]): 10 µg/mL; Activity [9]: 5 µg/mL
CCCCCC/N=C(N)/N=C(\N)NCc1ccc(Cl)cc1.Cl | 100 µg/mL | >100 µg/mL | 50 µg/mL | 100 µg/mL | –
Cl.N=C(NCc1ccc(Cl)c(Cl)c1)NC(=N)Nc1ccc(I)cc1 | <=10 ug ml-1 | 20 µg/mL | <=10 ug ml-1 | <=10 ug ml-1 | –
CCCCCCCCCCCC/N=C(N)/N=C(\N)Nc1ccc(Cl)c(Cl)c1.Cl | 20 µg/mL | 100 µg/mL | 20 µg/mL | >500 µg/mL | –
CCCCCCCCCCCC/N=C(N)/N=C(\N)NCc1ccc(Cl)c(Cl)c1.Cl | 20 µg/mL | 100 µg/mL | 100 µg/mL | >500 µg/mL | –
Cc1ccc(NC(=N)/N=C(\N)NCc2ccc(Cl)c(Cl)c2)cc1C.Cl | <=10 ug ml-1 | 20 µg/mL | <=10 ug ml-1 | 20 µg/mL | –
CCCCCC/N=C(N)/N=C(\N)Nc1ccc(Cl)c(Cl)c1.Cl | 20 µg/mL | 100 µg/mL | 20 µg/mL | 20 µg/mL | –
CCCCCCCCCC/N=C(N)/N=C(\N)Nc1ccc(Cl)c(Cl)c1.Cl | 20 µg/mL | 100 µg/mL | 100 µg/mL | 100 µg/mL | –
CCCCCC/N=C(N)/N=C(\N)Nc1ccc(Cl)cc1.Cl | 100 µg/mL | 500 µg/mL | 20 µg/mL | 100 µg/mL | –
CCCCCCCCCC/N=C(N)/N=C(\N)NCc1ccc(Cl)c(Cl)c1.Cl | <=10 ug ml-1 | 50 µg/mL | 100 µg/mL | 100 µg/mL | –
Cl.N=C(NCc1ccc(Cl)c(Cl)c1)NC(=N)Nc1ccc(Cl)c(Cl)c1Cl | <=10 ug ml-1 | <=10 ug ml-1 | <=10 ug ml-1 | <=10 ug ml-1 | –
Cl.N=C(NCc1ccc(Cl)c(Cl)c1)NC(=N)Nc1ccc(Cl)cc1Cl | <=10 ug ml-1 | 20 µg/mL | <=10 ug ml-1 | <=10 ug ml-1 | –
Cl.N=C(NCc1ccc(Cl)c(Cl)c1)NC(=N)Nc1ccc(Cl)cc1 | 50 µg/mL | 50 µg/mL | 50 µg/mL | – | Activity (Staphylococcus aureus [10]): 100 µg/mL
Cl.N=C(NCc1ccc(Cl)c(Cl)c1)NC(=N)Nc1ccc(Cl)c(Cl)c1 | 10 µg/mL | 50 µg/mL | 10 µg/mL | – | –
N=C(NCCCCCCNC(=N)NC(=N)Nc1ccc(Cl)cc1)NC(=N)Nc1ccc(Cl)cc1 [CHLORHEXIDINE] | 20 µg/mL | 100 µg/mL | 100 µg/mL | >500 µg/mL | Activity (Serratia marcescens [11]): 40 µg/mL; Activity (Enterococcus faecalis [12]): >160 µg/mL; Activity (Pseudomonas aeruginosa [8]): 160 µg/mL; Activity [9]: 40 µg/mL; Activity (Staphylococcus aureus [13]): >160 µg/mL; Activity (Escherichia coli [14]): 80 µg/mL
Cl.N=C(NCc1ccc(Cl)c(Cl)c1)NC(=N)Nc1ccc(Br)cc1 | <=10 ug ml-1 | 20 µg/mL | 20 µg/mL | 20 µg/mL | –
CCCCCC/N=C(N)/N=C(\N)NCc1ccc(Cl)c(Cl)c1.Cl | 50 µg/mL | 50 µg/mL | 50 µg/mL | 100 µg/mL | –
